In patent US11396497B2, “Proteasome inhibitors” (New Mexico Tech University Research Park Corporation, priority 2018, dated 2022):
Where two headings read alike, the source gives them in different places.

What was measured:
[1] = molecular target: T1, yeast proteasome yβ1 subunit (Saccharomyces cerevisiae, UniProt P25043+P38624); assay: Subunit selectivity, purified yeast proteasome yβ1; type: biochemical
T1 construct: measured using 8 μg/mL of purified yCP or iCP
Method: (§1) The compounds were diluted with lysis buffer; 10 μL of the compound-containing solution was added to the test wells at ten times the final concentration. […] The results are reported as the average of at least 3 technical replicates of IC50 values for proteasome inhibition.
(§2) Values and standard deviations were calculated from an assay performed in biological triplicate.

[2] = molecular target: T2, yeast proteasome yβ2 subunit (Saccharomyces cerevisiae, UniProt P25043+P25451); assay: Subunit selectivity, purified yeast proteasome yβ2; type: biochemical
T2 construct: measured using 8 μg/mL of purified yCP or iCP
Method: as §1, §2

MCF7 cells = assay: MTT assay cytotoxicity MCF7; conditions: Homo sapiens
MDA-MB-231 cells = assay: MTT assay cytotoxicity MDA-MB-231; conditions: Homo sapiens
[3] = molecular target: T3, chymotrypsin-like activity of the 26S proteasome (Homo sapiens, UniProt P28074); assay: Proteasome assay, chymotrypsin-like (ChT-L) activity, Suc-LLVY-AMC, Jurkat cell lysate; type: biochemical; conditions: ± S.D., read-out: Proteasome Inhibition ChT-like IC50
T3 construct: endogenous in cells; host or cells: Jurkat (ATCC TIB-152, E6-1 clone) cell lysate
T3 sequence (P28074 60-263): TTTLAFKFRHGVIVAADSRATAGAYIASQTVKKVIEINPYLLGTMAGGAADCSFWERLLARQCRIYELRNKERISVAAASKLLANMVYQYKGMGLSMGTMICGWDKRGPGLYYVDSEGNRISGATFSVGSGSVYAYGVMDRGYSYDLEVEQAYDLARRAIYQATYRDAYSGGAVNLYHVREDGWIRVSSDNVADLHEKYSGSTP
Method: (§3) The lysate was stored at −80° C. until the sample was used for the proteasome assay.
as §1

[4] = molecular target: T4, trypsin-like activity of the 26S proteasome (Homo sapiens, UniProt Q99436); assay: Proteasome assay, trypsin-like (T-L) activity, SUC-RLR-AMC, Jurkat cell lysate; type: biochemical
T4 construct: endogenous in cells; host or cells: Jurkat (ATCC TIB-152, E6-1 clone) cell lysate
T4 sequence (Q99436 44-277): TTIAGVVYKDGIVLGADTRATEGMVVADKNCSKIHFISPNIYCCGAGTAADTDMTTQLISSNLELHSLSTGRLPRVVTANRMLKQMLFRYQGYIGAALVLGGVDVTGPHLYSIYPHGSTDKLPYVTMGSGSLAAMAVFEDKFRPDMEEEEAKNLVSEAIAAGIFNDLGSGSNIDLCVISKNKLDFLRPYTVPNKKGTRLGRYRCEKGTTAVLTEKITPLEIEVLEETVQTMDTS
Method: as §3, §1

RPMI 8226 cells = assay: MTT assay cytotoxicity RPMI 8226; conditions: Homo sapiens
[5] = tested on: cancer cells (MCF7, MDA-MB-231, RPMI 8226); assay: MTT cytotoxicity, cell line not given
[6] = molecular target: T5, yeast proteasome yβ5 subunit (Saccharomyces cerevisiae, UniProt P23724+P30656); assay: Subunit selectivity, purified yeast proteasome yβ5; type: biochemical
T5 construct: measured using 8 μg/mL of purified yCP or iCP
Method: as §1, §2

[7] = molecular target: T6, immunoproteasome iβ5 subunit (Homo sapiens, UniProt P20618+P28062); assay: Subunit selectivity, purified immunoproteasome iβ5; type: biochemical; conditions: 8 μg/mL purified iCP; ± SD; read-out: iβ5 IC50
T6 construct: purchased Enzo Life Sciences
Method: as §1, §2

[8] = MCF7, 48 h, read-out: Cytotoxicity MCF7 IC50
[9] = MCF7, read-out: Cytotoxicity MCF7 IC50
[10] = MDA-MB-231, 48 h, read-out: Cytotoxicity MDA-MB-231 IC50
[11] = MDA-MB-231, read-out: Cytotoxicity MDA-MB-231 IC50
[12] = RPMI-8226, 48 h, read-out: Cytotoxicity RPMI 8226 IC50

| Structure (SMILES) | IC50 [1] | IC50 [2] | IC50 (MCF7 cells; [8]) | IC50 (MCF7 cells; [9]) | IC50 (MDA-MB-231 cells; [10]) | IC50 (MDA-MB-231 cells; [11]) | IC50 ([3]; Table 3, P2/P3 analogues) | IC50 [4] | IC50 (RPMI 8226 cells; [12]) | concentration up to which complete cytotoxicity was not achieved [5] | IC50 ([4]; Table 3, P2/P3 analogues, ± S.D., read-out: Proteasome Inhibition T-L-like IC50) | IC50 [6] | IC50 [7] | IC50 (RPMI 8226 cells; RPMI-8226, read-out: Cytotoxicity RPMI 8226 IC50) | cytotoxicity IC50 for all three cell lines tested (in words) [5] | times less cytotoxic than carfilzomib [5] | IC50 ([3]; Table 4, P4 analogues) | IC50 ([1]; 8 μg/mL purified yCP, ± SD, read-out: yβ1 IC50) | IC50 ([2]; 8 μg/mL purified yCP, ± SD, read-out: yβ2 IC50) |
| --- | --- | --- | --- | --- | --- | --- | --- | --- | --- | --- | --- | --- | --- | --- | --- | --- | --- | --- | --- |
| CC(C)C[C@H](NC(=O)[C@H](CCc1ccccc1)NC(=O)CN1CCOCC1)C(=O)N[C@@H](Cc1ccccc1)C(=O)N[C@@H](CC(C)C)C(=O)[C@@]1(C)CO1 [Carfilzomib, reference compound] | > 1000 nM | > 1000 nM | 4 ± 1 nM | 4.08 ± 0.056 nM | 4 ± 2 nM | 2.79 ± 0.464 nM | – | – | – | – | – | – | – | – | – | – | – | – | – |
| CC[C@H](C)[C@@H]1C(=O)O[C@H]1C(=O)NCC(=O)N[C@H](C(=O)OCc1ccccc1)C(C)C [Compound 10a, Benzyl ((2R,3S)-3-((S)-sec-butyl)-4-oxooxetane-2-carbonyl)glycyl-L-valinate] | – | – | ~4000 nM | – | 952 ± 262 nM | – | 3.8 ± 1.4 nM | 256 ± 72 nM | 840 ± 429 nM | > 100 µM | – | – | – | – | – | – | – | – | – |
| CC[C@H](C)[C@@H]1C(=O)O[C@H]1C(=O)N[C@H](C(=O)N[C@@H](COCc1ccccc1)C(=O)OCc1ccccc1)C(C)C [Compound 10k, Benzyl O-benzyl-N-(((2R,3S)-3-((S)-sec-butyl)-4-oxooxetane-2-carbonyl)-L-valyl)-L-serinate] | 17800 ± 2070 nM | > 50000 nM | 284 ± 132 nM | 178 ± 23.4 nM | 90 ± 51 nM | 75.6 ± 3.49 nM | – | – | 50 ± 28 nM | – | 1340 ± 334 nM | 24.5 ± 3.9 nM | 9.1 ± 2.7 nM | 40.5 ± 1.66 nM | midrange nanomolar | about 10 times | – | – | – |
| CC[C@H](C)[C@@H]1C(=O)O[C@H]1C(=O)N[C@H](C(=O)N[C@H](C(=O)NCc1ccccc1)C(C)C)C(C)C [Compound 11e, (2R,3S)—N—((S)-1-(((S)-1-(benzylamino)-3-methyl-1-oxobutan-2-yl)amino)-3-methyl-1-oxobutan-2-yl)-3-((S)-sec-butyl)-4-oxooxetane-2-carboxamide] | 1380 ± 106 nM | 2920 ± 210 nM | 814 ± 121 nM | – | 742 ± 212 nM | – | – | – | 387 ± 177 nM | – | – | 5.4 ± 0.5 nM | – | – | – | – | 4.5 ± 2.9 nM | – | – |
| CC(C)C1C(=O)OC1C(=O)N[C@H](C(=O)N[C@H](C(=O)O)C(C)C)C(C)C (some centres unmarked) [CysB, Cystargolide B, reference compound] | – | – | – | – | – | – | – | – | – | – | – | – | 681 ± 177 nM | – | – | – | – | 10200 ± 780 nM | 61600 ± 4840 nM |
